Residues, ends and D or L forms follow the SMILES beside them. No end group written: not given here.
target: T1, enzyme I (Escherichia coli, UniProt P08839); assay: biochemical; type: biochemical, E. coli; settings: in vitro PTS activity, purified HPr, enzyme I and IIGlcNAc, 30 min at 37° C.; Table I; read-out: inhibition IC50
T1 construct: made in house
From the text: (d) Inhibition of in vitro PTS activity. The inhibitory activity of soluble compounds can be measured quantitatively in the sugar phospbotransferase assay in the presence of the purified PTS proteins and with [^14C]GlcNAc ([^14C]N-acetyl-glucosamine) or [^14C]Glc ([[…] as terminal phosphate acceptor (Erni et al., 1982 J. Biol. Chem. 257:13726-13730).
Inhibition of phosphotransferase activity by soluble peptides. This assay measures the inhibition of enzyme I dependent sugar phosphorylation activity. […] The purified N-acetylglucosamine transporter (II^GlcNAc) of E. coli (Mukhija and Erni, 1996) was used as the sugar specific component. The reaction mixture contained per 100 μl, 100 μg phosphatidyl glycerol from egg yolk (Sigma), 50 mM KPi, pH 7.5, 2.5 mM dithiothreitol, 2.5 mM NaF, 5 MM MgCl2, 1 mM phosphoenolpyruvate (potassium salt, Sigma), 0.5 mM [U-^14C]GlcNAc (New England Nuclear; 56.3 mCi/mmol, diluted to 1000 cpm/nmol), and 3 μM each of purified HPr and enzyme I (Mao et al., 1995 J. Biol. Chem. 270:5258-5265). The reaction was started by addition of 0.1 μg of II^GlcNAc. After incubation for 30 min at 37° C., the reaction was stopped by adding 1 ml ice-cold water. GlcNAc-6-Phosphate was separated from free Glc-NAc by anion-exchange chromatography on AG-1-X2 (50-100 mesh, Biorad). Activity is expressed as nmoles of sugar-P formed after 30 min. The HPr concentration was adjustedsuch that it was rate limiting in the overall phosphotransferase reaction. The inhibitory peptides were added to concentrations of 25 μm to 10 mM. Phosphorylation of GlcNAc in the absences of peptide was taken as 100%.

Molecule	IC50
CSCC[C@H](N)C(=O)N[C@@H](CCCNC(=N)N)C(=O)N[C@@H](CC(C)C)C(=O)N[C@@H](CC(C)C)C(=O)N[C@@H](CCCCN)C(=O)N[C@H](C(=O)N[C@@H](CC(C)C)C(=O)N[C@@H](CS)C(=O)N[C@@H](Cc1ccccc1)C(=O)NCC(=O)N[C@@H](CC(C)C)C(=O)N[C@@H](CS)C(=O)NCC(=O)O)[C@@H](C)O [compound 18] (H-MRLLKTLCFGLCG-OH; N-terminus and C-terminus assumed)	3500 µM
CSCC[C@H](NC(C)=O)C(=O)N[C@@H](CCCNC(=N)N)C(=O)N[C@@H](CC(C)C)C(=O)N[C@@H](CC(C)C)C(=O)N[C@@H](CCCCN)C(=O)N[C@H](C(=O)N[C@@H](CC(C)C)C(=O)N[C@@H](CS)C(=O)N[C@@H](Cc1ccccc1)C(=O)N[C@H](C(=O)NCC(=O)N[C@@H](CC(C)C)C(=O)N[C@@H](CS)C(=O)NCC(=O)O)C(C)C)[C@@H](C)O [compound 19] (Ac-MRLLKTLCFVGLCG-OH)	> 10000 µM

same assay, conditions: peptides from support-based combinatorial libraries; Table 2

Molecule	inhibition IC50
KKFALRK [compound 21]	none

target: T1, enzyme I; assay: Pyruvate formation coupled to lactate dehydrogenase (uncoupling / phosphatase activity); type: biochemical, E. coli; settings: Table 2
From the text: The assay can be performed in microtiter plates and quantitated with a microplate photoreader. Another assay to monitor phosphatase activity of soluble compounds is based on the detection of pyruvate which is continuously produced from phosphoenolpyruvate whenever enzyme I is dephosphorylated. The enzyme I-specific phosphatase activity of soluble compounds can be detected from the pyruvate burst. The rate of pyruvate formation is monitored with lactate dehydrogenase and NADH. The assay can be performed in microtiter plates and quantitated with a microplate photoreader.

Molecule	uncoupling P1/peptide/h
KKFHIRKR [compound 28]	0.31 P1/peptide/h
KKFHLRK [compound 20, KKFHLRK]	0.49 P1/peptide/h
KKWHRRKK [compound 26]	0.29 P1/peptide/h
KGWHKRKK [compound 25]	0.23 P1/peptide/h
KKWHLRKR [compound 24]	0.3 P1/peptide/h
HPr protein: small (9 kD) soluble phosphorylcarrier protein HPr, natural phosphoryl acceptor of enzyme I	2.70 P1/peptide/h
XXKKWHLRKRXX [compound 23]	0.43 P1/peptide/h
KKWHKRKK [compound 27]	0.215 P1/peptide/h
KKFDLRK [compound 22, KKFDLRK]	0.05 P1/peptide/h

same assay, conditions: μM NADH consumed per μM peptide per one hour multiplied by the IC50 (μM)

Molecule	uncoupling P1/peptide (x IC50/h)
MSRHRN [compound 16, MSRHRN]	143.8 x IC50/h
KMSRHRKPGA [compound 3]	22.2 x IC50/h
SGRKSTRVHHWLLVL [compound 2]	6.6 x IC50/h
RIHFIPRRGR [compound 7]	39.6 x IC50/h
RLHYLF [compound 8, RLHYLF]	64.2 x IC50/h
GLRGKTRVHYLVLG [peptide 1]	3.2 x IC50/h
DGARLHYLF [compound 9]	132.3 x IC50/h
Ac-DGARLHYLF [compound 10]	15.2 x IC50/h
KISRHGRPTG [compound 6]	479.3 x IC50/h
KISRHGKRGK [compound 5]	1.9 x IC50/h

tested on: E. coli K-12 UT580; assay: Growth inhibition assay, filter discs on LB soft agar; type: cell-based; settings: area of clear zone around filter disc, over night at 37° C.
Procedure: FIG. 4. Growth inhibition of E. coli K12 UT580.
Growth inhibition assay. […] To each filter was added 10 μl of one of the different peptide stock solutions (20 μM to 80 μM). […] Compare FIG. 4 and Table I on the following two pages.

Molecule	growth inhibition (area/μM)
SGRKSTRVHHWLLVL [compound 2]	3.05 area/μM
RIHFIPRRGR [compound 7]	0.77 area/μM
RLHYLF [compound 8, RLHYLF]	0.90 area/μM
RHWSIF [compound 11, RHWSIF]	1.30 area/μM
GLRGKTRVHYLVLG [peptide 1]	3.65 area/μM
RHYLLF [compound 13, RHYLLF]	0.83 area/μM
RHITLF [compound 15, RHITLF]	0.27 area/μM

tested on: not listed separately; assay: Growth inhibition MIC (Table 2); type: cell-based; settings: not given

Molecule	growth inhibition MIC
XXKKWHLRKRXX [compound 23]	44.7 µM

target: T2, PTS Enzyme I (Escherichia coli, UniProt P08839); assay: Inhibition of sugar uptake assay (enzyme I dependent GlcNAc phosphorylation), low molecular weight compounds; type: biochemical, E. coli; settings: compounds at 25-200 μM, DMSO control taken as 100%; read-out: Activity against PTS Enzyme I IC50
T2 construct: made in house
From the text: To find inhibitors of Enzyme I of the PTS by high throughput screening, an in vitro assay based on spectrophotometric read out at 340 nm has been set up. The assay comprises of three major components: purified enzyme I in catalytic amounts, PEP as the phosphoryl donor substrate, and purified HPr as the phosphoryl acceptor substrate. The assay couples the formation of pyruvate from PEP with its reduction to lactate, catalyzed by lactate dehydrogenase. The disappearance of NADH, cofactor required by lactate dehydrogenase, is monitored colorimetrically at 340 nm. The assay is done in a U-shaped microtiter plate format, and quantitation is done using microplate absorbance reader.
Reaction mixtures, each 100 μl, are used in the assay. Each reaction mixture contains 0.8 mM PEP, 0.2 mM NADH, 3 μg lactate dehydrogenase (Boehringer Mannheim), 50 mM KPi pH=7.5, 2.5 mM dithiothreitol, 2.5 mM NaF, 5 mM MgCl2, and between 25 and 200 μM of one of the organic compounds to be tested. […]
Once the inhibitors of Enzyme I of the PTS are identified by high throughput screening, inhibition of enzyme I dependent sugar phosphorylation activity is measured with the inhibition of sugar uptake assay detailed below.
This assay measures the inhibition of enzyme I dependent sugar phosphorylation activity. […] Activity is expressed as nmoles of sugar-P formed after 30 min. […]

Molecule	IC50
O=C1NN=C(c2ccccc2)CC1Cc1ccc(O)cc1 (centres unmarked) [4-(4-Hydroxy-benzyl)-6-phenyl-4,5-dihydro-2H-pyridazin-3-one]	20 µM
Cc1cc(-c2onc(C)c2C(=O)Sc2ccc(Cl)cc2)no1 [5,3′-Dimethyl-[3,5′]-biisoxazolyl-4′-carbothioic acid-S-(4-chloro-phenyl) ester]	50 µM
